From US12264185B2, “Stabilized BCL9 peptides for treatment of aberrant Wnt signaling” (WntRx Pharmaceuticals Inc., priority 2015, dated 2025)
pIC50: −log10 of the molar value. Where two headings read alike, the source gives them in different places.

Key:
[1] = Preliminary solubility study; assay type: physicochemical; conditions: water, DMSO, and PBS
HCT116 cells = assay type: cell-based
Method: The additional polypeptides were tested in a CellTiterGlo luminescent cell viability assay (Promega). ICG001 was used as a positive control in this assay.

TGF-beta = TGF-beta transcription assay (SBE-bla HEK 293T cell line); assay type: cell-based
Excerpt: (§1) In these assays, the trifluoroacetic salt form of WX-024 was used.

PI3K/AKT/FOXO = PI3K/AKT/FOXO transcription assay (TREx FOXO3-DBE-bla HeLa cell line); assay type: cell-based
Excerpt: as §1

[2] = Preclinical summary of multiple animal models; assay type: in vivo
Excerpt: The in vivo efficacy of WX-024 was confirmed in multiple animal models.

[3] = Preliminary stability study of salt form; assay type: physicochemical; conditions: trifluroacetic acid salt form, 2-8° C. and room temperature, at least one month
NCI-H1299-Luc cells = assay: NCI-H1299-Luc orthotopic model in balb/c nude mice; assay type: in vivo; conditions: 15 mg/kg i.v. daily, 10 days
Excerpt: Orthotopic mouse models are useful to visualize the effect of an anti-tumor compound on a tumor implanted in a mouse and to assess the effect of the compound on tumor metastasis. An orthotropic model utilizing the NCI-H1299-Luc cell line (non-small-cell lung carcinoma cell line expressing luciferase) was selected for this experiment. Upon uptake of luciferin substrate, these cells are capable of producing bioluminescence. Proliferation of the NCI-H1299 cell line is dependent on Pygopus (Pygo) 2/β-catenin transcription activity, in which TCF-1 transcription factors (BCL9, β-cat and Pygo) form a transcription complex to initiate transcription.
The mice were about 5 weeks of age. NCI-H1299-Luc cells (5×10^6) in 50 μL in PBS were injected into each mouse lung with a syringe.
The bioluminescence intensity (total Flux [p/s]) of each mouse was measured periodically throughout the study according to manufacturer protocol (Xenogen ivis imaging system, PerkinElmer).

TNF-alpha/JNK = TNF-alpha/JNK transcription assay (AP1-bla ME-180 cell line); assay type: cell-based
Excerpt: as §1

Colo320DM tumor cells = assay: Colo320DM colon cancer xenograft model in BALB/c nude mice; assay type: in vivo; conditions: for tumor volume (mean±standard error of mean) / tumor volume smaller than vehicle-treated group: Day 14
Method: Based on the favorable PK profile of WX-024 in mice, as described above, the efficacy of WX-024 was investigated in a mouse xenograft colon cancer model. The Colo320DM colon cancer model in BALB/c nude mice was employed, in which Colo320DM cells are injected subcutaneously into BALB/c nude mice.
Colo320DM tumor cells (ATCC) were cultured in RPMI1640 medium (GIBCO, Cat #31800022) supplemented with 10% heat-inactivated fetal bovine serum at 37° C. Harvesting of Colo320DM cells was done when cells were growing in an exponential growth phase. Female BALB/c nude mice (Shanghai Laboratory Animal Center) were used for the study at 6-8 weeks of age. Animals had free access to water and irradiation sterilized food throughout the study period. Each mouse (n=16) was inoculated subcutaneously in the right flank region with 5×10^6 Colo320DM tumor cells in 0.1 mL of PBS. Tumors were allowed to develop for 14 days after inoculation, at which time the mean tumor size was 156.78 mm^3. During the study, the care and use of animals was conducted in accordance with the Association for Assessment and Accreditation of Laboratory Animal Care (AAALAC). Following inoculation of tumor cells, animals were checked daily for morbidity and mortality. The body weight of each animal was monitored throughout the study.
4% ethanol+8% Tween 80+88% 10 mM PBS was used as a vehicle. All treatments were administered once daily. The WX-024 solution was dissolved in pure DMSO and then diluted with sterile water. The dosing volume was adjusted for body weight such that the dosing volume for each animal was 0.05 mL/10 g of body weight for i.v. dosing. The treatment period was 14 days.
All treatments were begun as daily i.v. dosing. […] The injection method was changed to i.p. injection at Day 7 for the 10 mg/kg and 15 mg/kg groups. Dosing via i.p. injection (with the dosing volume adjusted to 0.1 ml/10 g) was maintained for the 10 and 15 mg/kg groups from Day 7 of the treatment period onwards, and the body weight of these animals stabilized.
Tumor volumes were measured in two dimensions using a caliper at Days 0, 3, 5, 7, 9, 11, 14 of the treatment period (all dosing starting after 14 days of tumor development). The volume of the tumor was measured using the equation: V=0.5 a×b^2, wherein a and b are the long and short diameters of the tumor, respectively. Tumor volumes are expressed in mm^3. At the end of the study (i.e., following 22 days of treatment) the tumor mass weight was measured.
At the conclusion of the Colo320DM model, tumor and intestinal samples were collected, fixed in formalin, and imbedded in paraffin using standard techniques. Four μm-thick section of tissue were prepared for immunohistochemistry (IHC) staining. The tissue sections were deparaffinized and rehydrated via sequential washing with xylene, graded ethanol and phosphate-buffered saline (PBS). Following deparaffinization and rehydration, the tissue sections were subjected to high temperature-induced epitope retrieval in target retrieval solution (10 mM citrate buffer; pH 6.0).
Antibody binding was detected using an UltraVision Quanto Detection System (Thermo, Cat #TL-060-QHD) kit following the manufacturer's instructions. The sections were treated with Hydrogen Peroxide Block and Ultra V Block (provided in the kit) and then incubated with primary antibody overnight at 4° C.: CD44 (Abcam, Cat #ab157107 diluted 1:500), Axin (LSBio, Rabbit IgG, Cat #LS-B7029, Lot #51907, Stock Conc.: 1000 ug/ml), or VEGFA (VEGFA: LS Bio, Rabbit IgG, Cat #LS-B10263, Lot #65323, Stock Conc.: 1000 ug/ml). Rabbit IgG replaced the primary antibody in the negative control. All sections were counterstained with hematoxylin, dehydrated and mounted. IHC images were taken with an Olympus CKX31SF reverse microscope.

With `CC[C@H](C)[C@@H]1NC(=O)[C@@](C)(NC(=O)[C@H](CCCNC(=N)N)NC(=O)[C@H](CC(C)C)NC(=O)[C@@H](NC(=O)[C@H](CCC(N)=O)NC(=O)[C@H](CC(C)C)NC(C)=O)[C@@H](C)O)CCCC=CCCC[C@@](C)(C(=O)N[C@@H](CC(C)C)C(=O)N[C@@H](Cc2ccc3ccccc3c2)C(N)=O)NC(=O)[C@H](CCCNC(=N)N)NC(=O)[C@H](CCC(N)=O)NC1=O` [WX-024, LQTLRXaa1IQRXaa2L] as the compound, how does the solubility [1] read?
The solubility was ≥ 1000 µg/mL.

What about the pIC50 (HCT116 cells) of the same compound?
Its pIC50 is 5.72.

What about the “inhibition of cell growth” value (HCT116 cells; HCT116 cells, CellTiterGlo) of the same compound?
Its value is “particularly effective”.

What about the pIC50 (TGF-beta; Example 4.5, read-out: IC50, TGF-beta transcription assay) of the same compound?
The pIC50 was < 5.00.

And the IC50 (TGF-beta; SBE-bla HEK 293T, TGF-beta 1 stimulation, trifluoroacetic salt form, read-out: IC50 (nM), TGF-beta pathway)?
Its IC50 is > 3160 nM.

What about the pIC50 (TGF-beta; summary, Example 6, read-out: IC50, TGF-0 reporter assay) of the same compound?
The pIC50 was < 7.00.

And the pIC50 (PI3K/AKT/FOXO; Example 4.5, read-out: IC50, PI3K/AKT/FOXO transcription assay)?
The pIC50 was < 5.00.

And the IC50 (PI3K/AKT/FOXO; TREx FOXO3-DBE-bla HeLa, Insulin stimulation, trifluoroacetic salt form, read-out: IC50 (nM), PI3K/AKT/FOXO3 pathway)?
Its IC50 is > 1000 nM.

And the pIC50 (PI3K/AKT/FOXO; summary, Example 6, read-out: IC50, PI3K/AKT/FOXO3 reporter assay)?
Its pIC50 is < 7.00.

And the drug-related toxicity ([2]; animals chronically dosed)?
Its drug-related toxicity is “no particular drug-related toxicity was observed”.

What about the “average tumor growth inhibition rate” value ([2]; multiple animal models, administered for 3-6 weeks) of the same compound?
Its value is 70-80%.

What about the stability [3] of the same compound?
Its stability is “stable”.

And the “tumor formation and growth (bioluminescence total flux)” value (NCI-H1299-Luc cells)?
The value was “almost completely blocked tumor formation and growth in vivo”.

And the IC50 (TNF-alpha/JNK; AP1-bla ME-180, TNF-alpha stimulation, trifluoroacetic salt form, read-out: IC50 (nM), TNP-alpha/JNK pathway)?
Its IC50 is > 1000 nM.

What about the pIC50 (TNF-alpha/JNK; Example 4.5, read-out: IC50, TNF-alpha/JNK transcription assay) of the same compound?
Its pIC50 is < 5.00.

And the pIC50 (TNF-alpha/JNK; summary, Example 6, read-out: IC50, TNF-α/JNK reporter assay)?
The pIC50 was < 7.00.

What about the “effect on body weight” value (Colo320DM tumor cells; 5 mg/kg i.v. throughout the study) of the same compound?
The value was “without an apparent effect on body weight”.

And the “tumor volume (mean±standard error of mean)” value (Colo320DM tumor cells; 5 mg/kg)?
The value was 2039±373.29 mm^3.

And the “tumor volume (mean±standard error of mean)” value (Colo320DM tumor cells; 10 mg/kg (i.v. then i.p. from Day 7))?
The value was 1370±114.39 mm^3.

What about the intestinal morphology (Colo320DM tumor cells; 10 mg/kg or 15 mg/kg, 22 days) of the same compound?
The intestinal morphology was “maintained”.

What about the “tumor volume smaller than vehicle-treated group” value (Colo320DM tumor cells; 10 mg/kg) of the same compound?
Its value is 44.9%.

And the “tumor volume (mean±standard error of mean)” value (Colo320DM tumor cells; 15 mg/kg (i.v. then i.p. from Day 7))?
Its value is 1157.6±99.04 mm^3.

And the “average body weight loss compared to vehicle” value (Colo320DM tumor cells; 15 mg/kg i.v. daily, after 3 days of treatment)?
The value was “approximately 11%”.

What about the “Axin 2 staining of intestine” value (Colo320DM tumor cells; 15 mg/kg, 22 days) of the same compound?
Its value is “decreased Axin 2 staining”.

What about the “CD44 staining of tumor” value (Colo320DM tumor cells; 15 mg/kg, 22 days) of the same compound?
Its value is “decrease in CD44 staining”.

What about the “tumor volume smaller than vehicle-treated group” value (Colo320DM tumor cells; 15 mg/kg) of the same compound?
Its value is 53.2%.

And the tumor mass weight (Colo320DM tumor cells; 10 or 15 mg/kg, 22 days of treatment)?
Its tumor mass weight is “substantially less than tumor mass of vehicle-treated mice”.

And the “IC50, preliminary dose-response correlation with predicted tumor size” value (Colo320DM tumor cells; Colo320DM xenograft)?
Its value is 12.69 mg/kg.

What about the “VEGFA expression in tumors” value (Colo320DM tumor cells; immunohistochemistry) of the same compound?
Its value is “capable of suppressing VEGFA expression in tumors”.
